Common to all, as to experiment: NCI anticancer screen, dose series, 48 h
In assay [1] the test system is MDA-MB-231.
Assay [2] deals with OVCAR-5.
The subject of assay [3] is RPMI-8226.
Assay [4] deals with COLO 205.
For assay [5], the system named is TK-10.
The subject of assay [6] is UACC-257.
Assay [7] deals with SK-MEL-2.
Assay [8] relates to SF-268.
In assay [9] the test system is KM12.
In assay [10] the test system is SK-MEL-28.
Assay [11] relates to SW-620.
Assay [12] concerns NCI-H522.
The subject of assay [13] is UACC-62.
Assay [14] has as its system Malme-3M.
Assay [15] relates to ACHN.
The test system of assay [16] is SNB-19.
Assay [17] relates to MDA-MB-435.
For assay [18], the system named is PC-3.
Assay [19] has as its system SF-539.
The test system of assay [20] is SR.

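Cells were grown in 96-well plates and exposed to each compound for 48 hours at five concentrations; endpoints were interpolated linearly between bracketing concentrations, or set to the highest concentration if not reached. At the GI50, growth is halved.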 Active and inactive are the calls of the source. Cut-off read from the data, not from the text of the source: active = GI50 up to about 1.1 µM and inactive = higher.

Consider `CCCCSC1=N/C(=C\c2ccco2)C(=O)N1`, for which the GI50 in assay [1] is 99.8 µM (inactive); in assay [2], > 100 µM (inactive); in assay [3], 34.1 µM (inactive); in assay [4] it was 26.1 µM (inactive); in [5], 59.6 µM (inactive); in assay [6], 34.8 µM (inactive). For the same compound, the GI50 is 54.8 µM (inactive) in assay [7]; 41.3 µM (inactive) in assay [8]; 37.6 µM (inactive) in assay [9]; 42.5 µM (inactive) in assay [10]; 35.8 µM (inactive) in assay [11]; 28.9 µM (inactive) in assay [12]. Further, the GI50 in assay [13] was 42.1 µM (inactive); in assay [14], 29.2 µM (inactive); in assay [15], > 100 µM (inactive); in assay [16], 63.8 µM (inactive); in assay [17], 36.7 µM (inactive); in assay [18] it was 46.1 µM (inactive).

As for `O=C(O)CCC[C@]1(O)O[C@@]2(CCCC2=O)[C@]2(O)CCC[C@@]21O`, the GI50 in assay [1], in assay [2], in [3], in assay [4], in [5] and in [6] was > 100 µM (inactive) in each case. Also, the GI50 in assay [7], in [19], in [8], in [9], in [10] and in [11] was > 100 µM (inactive) each time. The GI50 in assay [12] was 0.106 µM (active); in assay [20], > 100 µM (inactive); in [13], > 100 µM (inactive); in assay [14] it was > 100 µM (inactive); in assay [15], > 100 µM (inactive); in assay [16], > 100 µM (inactive). Also, in [18], the GI50 was > 100 µM (inactive).

In the case of `N#CC(C#N)=C(N)/C(C#N)=C/c1ccc2ccccc2n1`, the GI50 was 23.7 µM (inactive) in assay [1]; > 100 µM (inactive) in assay [2]; 36.9 µM (inactive) in assay [3]; > 100 µM (inactive) in assay [5]; 48.8 µM (inactive) in assay [6]; 35 µM (inactive) in assay [7]. Further, the GI50 in assay [8] was > 100 µM (inactive); in assay [9] it was 19.5 µM (inactive); in assay [10] it was 18.6 µM (inactive); in assay [11], > 10 µM (inactive); in assay [13], 18.8 µM (inactive); in assay [14], 96.8 µM (inactive). For the same compound, the GI50 is 17.2 µM (inactive) in assay [15], 24.3 µM (inactive) in assay [16], 30.5 µM (inactive) in assay [17] and 26.2 µM (inactive) in assay [18].

Take `C=CC[C@@H](N)C(=O)N(C)[C@@H](C)[C@@H](O)c1ccccc1`: the GI50 in assay [1], in assay [4], in [5], in [6], in [7] and in assay [19] was > 100 µM (inactive) in each case. Further, the GI50 in assay [8] is > 100 µM (inactive); in assay [9], > 100 µM (inactive); in assay [10], > 100 µM (inactive); in [11], > 100 µM (inactive); in assay [12], 12.4 µM (inactive); in assay [13] it was > 100 µM (inactive). The GI50 in assay [15], in assay [16], in [17] and in assay [18] was > 100 µM (inactive) in each case.

As for `CCOC(=O)C(C)c1nc2cc(C(F)(F)F)ccc2[nH]c1=O` (centres undefined), the GI50 in assay [1] was > 100 µM (inactive); in [2], > 100 µM (inactive); in assay [3] it was 51.9 µM (inactive); in assay [4], > 100 µM (inactive); in assay [5], > 100 µM (inactive); in assay [6] it was 69.8 µM (inactive). Besides, the GI50 in assay [7], in assay [19], in [8], in assay [9], in [10] and in assay [11] was > 100 µM (inactive) in each case. The GI50 in [13] was > 100 µM (inactive); in assay [14], > 100 µM (inactive); in assay [15], > 100 µM (inactive); in assay [16], > 100 µM (inactive); in assay [17], > 100 µM (inactive); in [18] it was 49 µM (inactive).

As to `CC1=C(C(=O)OCCc2ccc([N+](=O)[O-])cc2)C(c2cccc([N+](=O)[O-])c2)C(C(=O)OC(C)C)=C(C)N1` (centres undefined), the GI50 in [2] was > 100 µM (inactive); in assay [3] it was 2.88 µM (inactive); in assay [4] it was 5.81 µM (inactive); in assay [5] it was 44.4 µM (inactive); in [6] it was 5.89 µM (inactive); in assay [7] it was 7.62 µM (inactive). The GI50 in [19] was > 100 µM (inactive); in assay [8], 6.4 µM (inactive); in [9], 6.05 µM (inactive); in assay [10] it was 80 µM (inactive); in assay [11] it was 6.68 µM (inactive); in assay [12], 1.87 µM (inactive). Also, the GI50 was 3.49 µM (inactive) in [20]; 4.48 µM (inactive) in assay [13]; 6.75 µM (inactive) in assay [14]; 4.82 µM (inactive) in assay [15]; 12.7 µM (inactive) in [16]; 4.46 µM (inactive) in [17]. Moreover, the GI50 in assay [18] was 2.26 µM (inactive).

`Nn1c(S)nnc1-c1ccccc1Nc1ccccc1-c1nnc(S)n1N`: the GI50 was > 50 µM (inactive) in assay [2]; 41.8 µM (inactive) in [3]; > 50 µM (inactive) in assay [4]; > 50 µM (inactive) in [5]; > 50 µM (inactive) in assay [6]; > 50 µM (inactive) in assay [7]. Moreover, the GI50 in assay [19], in [8], in [9], in assay [10], in assay [11] and in [12] was > 50 µM (inactive) in each case. Further, the GI50 in assay [20], in assay [13], in assay [14], in [15], in assay [16] and in assay [17] was > 50 µM (inactive) in each case. For the same compound, the GI50 in [18] is > 50 µM (inactive).

`CC1(C)OC(=O)C(C)(C)C(=O)O1`: the GI50 in assay [1], in assay [2], in [4], in assay [5], in [6] and in [7] was > 100 µM (inactive) in each case. Also, the GI50 in [19], in assay [8], in assay [9], in assay [10], in assay [11] and in [12] was > 100 µM (inactive) in each case. The GI50 in assay [20], in [13], in assay [14], in assay [15], in [16] and in [18] was > 100 µM (inactive) each time.

On to `N#C/C(=C\c1ccccc1Br)C(=O)c1ccccc1`, for which the GI50 in [2] was > 61.7 µM (inactive); in [3] it was 9.86 µM (inactive); in assay [4], > 65.9 µM (inactive); in [5] it was > 63.4 µM (inactive); in [6], > 60 µM (inactive); in assay [7] it was > 65.5 µM (inactive). Also, the GI50 in assay [19] was > 91.2 µM (inactive); in assay [8], > 46 µM (inactive); in [9], > 54.3 µM (inactive); in assay [10], > 42.3 µM (inactive); in [11], 2.04 µM (inactive); in [12], 58.2 µM (inactive). Also, the GI50 in assay [20] is 13.3 µM (inactive); in assay [13], 29.5 µM (inactive); in assay [14], > 53.1 µM (inactive); in assay [15], > 53.8 µM (inactive); in [16], 20.4 µM (inactive).

Turning to `CC(=O)/N=C1\NC(=O)/C(=C/c2ccc(/C=C3/C(=O)N/C(=N\C(C)=O)N3C)cc2)N1C`, the GI50 in assay [1], in assay [2], in assay [4], in assay [5], in assay [6] and in [7] was > 100 µM (inactive) in each case. The GI50 in assay [19], in assay [8], in assay [9], in assay [10], in assay [11] and in [13] was > 100 µM (inactive) each time. Moreover, the GI50 in assay [15], in [16] and in assay [17] was > 100 µM (inactive) in each case.

For the compound `CCc1n[nH]c(=O)n1-c1ccc2ccccc2c1`, the GI50 in assay [1], in assay [2], in assay [3], in assay [4], in assay [5] and in assay [6] was > 100 µM (inactive) throughout. For the same compound, the GI50 in [7], in assay [19], in [8], in assay [9], in assay [10] and in assay [11] was > 100 µM (inactive) in each case. In addition, the GI50 in [12], in assay [20], in assay [13], in [14], in [15] and in [16] was > 100 µM (inactive) in each case. In addition, in assay [17], the GI50 was > 100 µM (inactive).

The record behind these values is ChEMBL document CHEMBL1201862, “PubChem BioAssay data set” (2004).
